System: 556581-035-R-J1-PDC complex spheroid growth
Assay: Anticancer human tumor 556581-035-R-J1-PDC patient-derived ovarian carcinoma cell line growth inhibition [Asc]
Conditions: for viability, T/C: stronger effect = lower value
Procedure: Multicellular complex tumor spheroid response to apoptosis pathway targeting inhibitors Alrizomadlin, Pelcitoclax, and Dasminapant in combination with a variety of drugs and investigational agents in selected tumor cell lines
The MDM2 inhibitor alrizomadlin, the Bcl-2/Bcl-xL inhibitor pelcitoclax, and the IAPs inhibitor dasminapant were evaluated both individually and in combination with standard of care and investigational anticancer small molecules within a complex spheroid model of solid tumors. . Complex spheroids include a stromal component modeled by human endothelial cells (HUVEC) and fibroblasts modeled by human mesenchymal stem cells (MSCs). The concentration ranges selected for each drug and investigational agent were based upon clinically achievable concentrations if the clinical Cmax of the agent was known.
Compounds. The drugs and investigational agents: alrizomadlin (APG-115; NSC831270), pelcitoclax (APG-1252; NSC835773), dasminapant (APG-1387;NSC834197), TAK-243 (NSC785004), copanlisib (NSC809693), olaparib (NSC753686), talazoparib (NSC767125), cobimetinib (NSC 768068), eltanexor (KPT-8602, NSC 794443), abemaciclib (NSC 768073), sotorasib (NSC818433), adagrasib (NSC 831453), MRTX-1133 (NSC 836407), Iadademestat (ORY1001, NSC 806812), and RMC-4630 (NSC839698), were obtained from the NCI Developmental Therapeutics Program Chemical Repository. The FDA-approved anticancer drug set is available from the Developmental Therapeutics Program at https://dtp.cancer.gov/organization/dscb/obtaining/available plates.htm. […] The stock solutions were prepared in dimethyl sulfoxide (DMSO, Sigma-Aldrich, St. Louis, MO, cat. D2650) at 800-fold the tested concentration and stored at -70 degrees C prior to their use. All drugs and investigational agents were tested over a range starting from a high concentration at or near the clinical Cmax and decreasing in half-log increments. If the clinical Cmax for an agent had not been determined, the highest concentration tested was 10 microM.
The patient-derived cancer (PDC) cell lines include five colon adenocarcinomas: 186277-243-T-J2-PDC, 616215-338-R-J1-PDC, 439559-082-T-J2-PDC, 463943-066-T-J2-PDC, and 519858-162-T-J1-PDC; three pancreatic carcinomas: 323965-272-R-J2-PDC, 521955-158-R6-J3-PDC, and 521955-158-R2-J5-PDC; two uterine sarcomas: 327498-152-R-J2-PDC and 993429-296-R-J1-PDC; two rhabdomyosarcomas: 755483-174-R-J1-PDC and 772245-204-R-J1-PDC; two soft tissue sarcomas: 126254-015-R-J1-PDC and 494315-158-R-J1-PDC; two malignant fibrous histiocytomas: 317291-083-R-J1-PDC and 596521-263-R-J1-PDC; two breast carcinomas: 171881-019-R-J1-PDC and 885512-296-R-J2-PDC; and one ovarian carcinoma: 6556581-035-R-J-PDC were obtained from the NCI PDMR, (https://pdmr.cancer.gov). The established cell lines HSSY-2 synovial sarcoma (RRID:CVCL 8719), SYO-1 synovial sarcoma (RRID:CVCL_7146), MPNST malignant peripheral neural sheath tumor were obtained from the Sloan Kettering Institute. The following established cell lines were purchased from the American Type Culture Collection (ATCC, Manassas, VA), Sor the received from the NCI repository:, PANC-1 pancreatic carcinoma (CRL-1469, RRID:CVCL_0480), OVCAR-5 ovarian carcinoma (RRID:CVCL_1628), OVCAR-8 ovarian carcinoma (RRID:CVCL_1629), , MCF-7 breast carcinoma (CRL-12584, RRID:CVCL_0031), MDA-MB-231 breast carcinoma (CRL-12532, RRID:CVCL_0062), NCI-H1876 small cell lung carcinoma (CRL-5902, RRID:CVCL_1503), NCI-H510A small cell lung carcinoma (HTB-184, RRID:CVCL_1565), NCI-H1417 (CRL-5869, RRID:CVCL_1469), and NCI-H196 small cell lung carcinoma (CRL-5823, RRID:CVCL_1509). Dr. Peter Houghton (Greehey Children's Cancer Research Institute, University of Texas Health Science Center, San Antonio, TX) provided Rh-18 rhabdomyosarcoma (RRID:CVCL_1659). Pooled donor human umbilical vein endothelial cells (HUVEC, Lonza, cat. CC-2519) and human mesenchymal stem cells (hMSC, Lonza, cat. PT-2501) were purchased from Lonza (Walkersville, MD).
Cell Culture. […]

[1] = curve of first compound, second compound 0.03 µM
[2] = curve of first compound, second compound 0.0949 µM
[3] = curve of first compound, second compound 0.3 µM
[4] = curve of first compound, second compound 0.949 µM
[5] = curve of first compound, second compound 3 µM
[6] = second compound 0.03 µM, first compound 0.00316 µM
[7] = second compound 0.03 µM, first compound 0.01 µM
[8] = second compound 0.03 µM, first compound 0.0316 µM
[9] = second compound 0.03 µM, first compound 0.1 µM
[10] = second compound 0.0949 µM, first compound 0.00316 µM
[11] = second compound 0.0949 µM, first compound 0.01 µM
[12] = second compound 0.0949 µM, first compound 0.0316 µM
[13] = second compound 0.0949 µM, first compound 0.1 µM
[14] = second compound 0.3 µM, first compound 0.00316 µM
[15] = second compound 0.3 µM, first compound 0.01 µM
[16] = second compound 0.3 µM, first compound 0.0316 µM
[17] = second compound 0.3 µM, first compound 0.1 µM
[18] = second compound 0.949 µM, first compound 0.00316 µM
[19] = second compound 0.949 µM, first compound 0.01 µM
[20] = second compound 0.949 µM, first compound 0.0316 µM
[21] = second compound 0.949 µM, first compound 0.1 µM
[22] = second compound 3 µM, first compound 0.00316 µM
[23] = second compound 3 µM, first compound 0.01 µM
[24] = second compound 3 µM, first compound 0.0316 µM
[25] = second compound 3 µM, first compound 0.1 µM
[26] = second compound 0.03 µM, first compound 0.316 µM
[27] = second compound 0.03 µM, first compound 1 µM
[28] = second compound 0.0949 µM, first compound 0.316 µM
[29] = second compound 0.0949 µM, first compound 1 µM
[30] = second compound 0.3 µM, first compound 0.316 µM
[31] = second compound 0.3 µM, first compound 1 µM
[32] = second compound 0.949 µM, first compound 0.316 µM
[33] = second compound 0.949 µM, first compound 1 µM
[34] = second compound 3 µM, first compound 0.316 µM
[35] = second compound 3 µM, first compound 1 µM
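Note: spheroids exposed to agents for 7 days before viability read.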

Cc1c(S(C)(=O)=O)c(-c2cc(F)cc(N3CCN(c4ccc(NS(=O)(=O)c5ccc(NC(CCN6CCC(C(=O)OCCCP(=O)(O)O)CC6)CSc6ccccc6)c(S(=O)(=O)C(F)(F)F)c5)cc4)CC3)c2)c(-c2ccc(Cl)cc2)n1C(C)C (stereo unspecified)
viability, T/C (compound 0.1 µM): 80.6% [middle of 14 runs] | viability, T/C (compound 0.316 µM): 73.5% [middle of 14 runs] | viability, T/C (compound 1 µM): 66.1% [middle of 14 runs] | viability, T/C (compound 3.16 µM): 66.3% [middle of 14 runs] | viability, T/C (compound 10 µM): 61.9% [middle of 14 runs] | IC50 (compound alone, run of 10/11/2022): > 10000 nM

Cn1ncnc1[C@H]1c2n[nH]c(=O)c3cc(F)cc(c23)N[C@@H]1c1ccc(F)cc1 + CCN1C(C(=O)NC23CCC(C(=O)O)(CC2)CC3)C(c2cccc(Cl)c2F)C2(C(=O)Nc3cc(Cl)ccc32)C12CCCCC2
IC50 [1]: > 100 nM | IC50 [2]: > 100 nM | IC50 [3]: > 100 nM | IC50 [4]: > 100 nM | IC50 [5]: > 100 nM | viability, T/C (second compound 0.03 µM, first compound 0.000316 µM): 110% | viability, T/C (second compound 0.03 µM, first compound 0.001 µM): 102% | viability, T/C [6]: 94.4% | viability, T/C [7]: 87.7% | viability, T/C [8]: 94.3% | viability, T/C [9]: 95.2% | viability, T/C (second compound 0.0949 µM, first compound 0.000316 µM): 105% | viability, T/C (second compound 0.0949 µM, first compound 0.001 µM): 100% | viability, T/C [10]: 116% | viability, T/C [11]: 96.1% | viability, T/C [12]: 94.9% | viability, T/C [13]: 92.3% | viability, T/C (second compound 0.3 µM, first compound 0.000316 µM): 102% | viability, T/C (second compound 0.3 µM, first compound 0.001 µM): 130% | viability, T/C [14]: 97.2% | viability, T/C [15]: 107% | viability, T/C [16]: 87.1% | viability, T/C [17]: 83.4% | viability, T/C (second compound 0.949 µM, first compound 0.000316 µM): 109% | viability, T/C (second compound 0.949 µM, first compound 0.001 µM): 93.8% | viability, T/C [18]: 102% | viability, T/C [19]: 96.6% | viability, T/C [20]: 90.6% | viability, T/C [21]: 92.7% | viability, T/C (second compound 3 µM, first compound 0.000316 µM): 97% | viability, T/C (second compound 3 µM, first compound 0.001 µM): 94.8% | viability, T/C [22]: 78.7% | viability, T/C [23]: 87% | viability, T/C [24]: 84% | viability, T/C [25]: 86.8%

O=C(c1cc(Cc2n[nH]c(=O)c3ccccc23)ccc1F)N1CCN(C(=O)C2CC2)CC1 + CCN1C(C(=O)NC23CCC(C(=O)O)(CC2)CC3)C(c2cccc(Cl)c2F)C2(C(=O)Nc3cc(Cl)ccc32)C12CCCCC2
IC50 [1]: > 10000 nM | IC50 [2]: > 10000 nM | IC50 [3]: > 10000 nM | IC50 [4]: > 10000 nM | IC50 [5]: > 10000 nM | viability, T/C [8]: 105% | viability, T/C [9]: 98% | viability, T/C [26]: 85.5% | viability, T/C [27]: 89.9% | viability, T/C (second compound 0.03 µM, first compound 3.16 µM): 86.7% | viability, T/C (second compound 0.03 µM, first compound 10 µM): 70.6% | viability, T/C [12]: 106% | viability, T/C [13]: 96.2% | viability, T/C [28]: 94% | viability, T/C [29]: 93.7% | viability, T/C (second compound 0.0949 µM, first compound 3.16 µM): 87.9% | viability, T/C (second compound 0.0949 µM, first compound 10 µM): 77% | viability, T/C [16]: 104% | viability, T/C [17]: 97.2% | viability, T/C [30]: 99.2% | viability, T/C [31]: 97.1% | viability, T/C (second compound 0.3 µM, first compound 3.16 µM): 73.3% | viability, T/C (second compound 0.3 µM, first compound 10 µM): 79.2% | viability, T/C [20]: 89.9% | viability, T/C [21]: 92.6% | viability, T/C [32]: 103% | viability, T/C [33]: 86.1% | viability, T/C (second compound 0.949 µM, first compound 3.16 µM): 79.3% | viability, T/C (second compound 0.949 µM, first compound 10 µM): 83.6% | viability, T/C [24]: 97.5% | viability, T/C [25]: 81.8% | viability, T/C [34]: 87.5% | viability, T/C [35]: 86.8% | viability, T/C (second compound 3 µM, first compound 3.16 µM): 84.8% | viability, T/C (second compound 3 µM, first compound 10 µM): 65.9%

O=C(c1ccc(F)c(F)c1Nc1ccc(I)cc1F)N1CC(O)([C@@H]2CCCCN2)C1 + CCN1C(C(=O)NC23CCC(C(=O)O)(CC2)CC3)C(c2cccc(Cl)c2F)C2(C(=O)Nc3cc(Cl)ccc32)C12CCCCC2
IC50 [1]: 209 nM | IC50 [2]: 208 nM | IC50 [3]: 181 nM | IC50 [4]: 188 nM | IC50 [5]: 92.1 nM | viability, T/C [6]: 118% | viability, T/C [7]: 99.4% | viability, T/C [8]: 97.7% | viability, T/C [9]: 72.9% | viability, T/C [26]: 35.9% | viability, T/C [27]: 10.6% | viability, T/C [10]: 108% | viability, T/C [11]: 114% | viability, T/C [12]: 95.8% | viability, T/C [13]: 85.9% | viability, T/C [28]: 29.6% | viability, T/C [29]: 10.4% | viability, T/C [14]: 106% | viability, T/C [15]: 104% | viability, T/C [16]: 127% | viability, T/C [17]: 73.5% | viability, T/C [30]: 29.8% | viability, T/C [31]: 9.99% | viability, T/C [18]: 99.1% | viability, T/C [19]: 119% | viability, T/C [20]: 100% | viability, T/C [21]: 78.1% | viability, T/C [32]: 26.8% | viability, T/C [33]: 12.4% | viability, T/C [22]: 99.9% | viability, T/C [23]: 97.3% | viability, T/C [24]: 86.3% | viability, T/C [25]: 47.3% | viability, T/C [34]: 17.2% | viability, T/C [35]: 11.4%

From PubChem BioAssay AID1963450 (Molecular Pharmacology Branch, DTP, NCI, 2024)
